Experiments:
[1] = molecular target: T1, Histidine tagged HIF-2α protein containing PAS-B domain (240-350) (Homo sapiens, UniProt Q99814); experiment: HIF-2α Scintillation Proximity Assay (SPA) binding assay; conditions: 50 nM HIF-2α protein, 25 nM 3H-tracer
T1 construct: HIF-2α protein containing PAS-B domain (240-350); made in house
How it was run: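 His-tagged HIF-2α PAS-B (240-350), 50 nM final, preincubated with compound 1 h at room temperature in 25 mM Tris-HCl pH 7.4, 150 mM NaCl, 0.15% BSA, 0.001% Tween 20, 2% DMSO. Copper-chelate SPA beads (3 ug/well, 45 min) and 25 nM tritiated N-(3-chlorophenyl)-4-nitro-2,1,3-benzoxadiazol-5-amine tracer followed; IC50 from four-parameter fits.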

[2] = molecular target: T2, HIF-2α (Homo sapiens, UniProt Q99814); experiment: HIF-2α luciferase reporter assay in HIF-Luc-786-O cells; type: cell-based
T2 construct: host or cells: 786-O cells stably transduced with Cignal Lenti HIF Luc Reporter (only the reporter was introduced, not HIF-2α)
How it was run: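 Luminescence (ONE-Glo) read after 20 h compound incubation, top concentration 50 uM, 1% DMSO, 20,000 HIF-Luc-786-O cells per well. Activity scaled between DMSO maximum and no-cell baseline; four-parameter dose-response fits yielded IC50.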

T1 sequence (Q99814 240-350): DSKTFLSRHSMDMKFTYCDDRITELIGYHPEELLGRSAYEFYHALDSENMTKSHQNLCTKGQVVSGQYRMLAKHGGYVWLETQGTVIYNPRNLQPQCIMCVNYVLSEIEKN
T2 sequence (Q99814 whole entry): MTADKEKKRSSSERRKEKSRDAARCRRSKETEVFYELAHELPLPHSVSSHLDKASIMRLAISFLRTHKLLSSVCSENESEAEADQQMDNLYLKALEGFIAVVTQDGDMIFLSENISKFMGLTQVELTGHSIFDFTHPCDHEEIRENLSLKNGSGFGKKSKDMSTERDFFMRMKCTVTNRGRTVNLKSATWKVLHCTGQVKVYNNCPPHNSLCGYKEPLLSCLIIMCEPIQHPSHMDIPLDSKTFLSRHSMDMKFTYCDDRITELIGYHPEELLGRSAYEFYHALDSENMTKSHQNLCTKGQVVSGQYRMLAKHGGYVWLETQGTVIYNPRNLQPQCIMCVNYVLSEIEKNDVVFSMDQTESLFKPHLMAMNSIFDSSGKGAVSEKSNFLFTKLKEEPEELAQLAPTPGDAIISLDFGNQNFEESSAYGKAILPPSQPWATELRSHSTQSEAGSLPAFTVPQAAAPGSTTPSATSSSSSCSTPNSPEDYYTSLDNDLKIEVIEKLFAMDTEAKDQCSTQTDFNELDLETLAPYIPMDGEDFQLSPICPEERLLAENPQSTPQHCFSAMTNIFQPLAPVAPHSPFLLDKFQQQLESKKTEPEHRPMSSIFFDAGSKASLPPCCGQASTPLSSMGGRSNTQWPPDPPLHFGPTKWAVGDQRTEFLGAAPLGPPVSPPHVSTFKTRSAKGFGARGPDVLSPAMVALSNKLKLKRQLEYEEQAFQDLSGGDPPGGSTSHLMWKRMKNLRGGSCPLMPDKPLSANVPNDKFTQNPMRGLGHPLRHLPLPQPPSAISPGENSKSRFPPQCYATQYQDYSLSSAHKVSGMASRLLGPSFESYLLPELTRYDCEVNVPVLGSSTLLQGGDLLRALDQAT

IC50 ([1]; Table 1) [nM]	IC50 ([2]; Table 1, 20 hours incubation) [nM]	IC50 ([1]; Table 2) [nM]	IC50 ([2]; Table 2, 20 hours incubation) [nM]	Structure (SMILES)
< 100	< 100			N#Cc1cc(F)cc2c1[C@@H](c1ccc(S(=O)(=O)C(F)(F)F)c3c1CC[C@H]3O)CCC2 [Example 90]
< 100	< 100			N#Cc1cc(F)cc2c1[C@@H](c1ccc(C(F)(F)F)c3c1OC(F)(F)[C@H]3O)CCC2 [Example 91]
< 100	100 to 1000			CS(=O)(=O)c1ccc([C@H]2CCCc3cc(F)cc(F)c32)c2c1[C@H](O)C(F)(F)C2 [Example 93]
100 to 1000	100 to 1000			CS(=O)(=O)c1ccc([C@H]2CCCc3cc(F)cc(C#N)c32)c2c1[C@H](O)[C@@H](F)CC2 [Example 94]
100 to 1000	100 to 1000			CS(=O)(=O)c1ccc([C@H]2CCCc3cccc(C#N)c32)c2c1[C@H](O)[C@H](F)C2 [Example 97]
100 to 1000	100 to 1000			CS(=O)(=O)c1ccc([C@H]2CCCc3cc(F)cc(C#N)c32)c2c1[C@H](O)[C@H](F)CC2 [Example 98]
100 to 1000	100 to 1000			N#Cc1cc(F)cc2c1[C@H](c1ccc(S(=O)(=O)C(F)(F)F)c3c1CC[C@H]3O)CCC2 [Example 100]
100 to 1000	> 1000			O=S(=O)(c1ccc([C@@H]2c3c(F)cc(F)cc3CC[C@@H]2O)c2c1[C@H](O)[C@H](F)C2)C(F)(F)F [Example 101]
> 1000	> 1000			O=S(=O)(c1ccc([C@H]2CCNc3cc(F)cc(F)c32)c2c1[C@H](O)[C@H](F)C2)C(F)(F)F [Example 102]
> 1000	> 1000			O=S1(=O)c2ccc(C3CCCc4cc(F)cc(F)c43)c(Cl)c2C(O)C1(F)F (stereo not drawn) [Example 103]
> 1000	> 1000			O=S(=O)(c1ccc([C@@H]2CCOc3cc(F)cc(F)c32)c2c1[C@H](O)[C@H](F)C2)C(F)(F)F [Example 104]
> 1000	> 1000			CS(=O)(=O)c1ccc([C@@H]2CCCc3cc(F)cc(C#N)c32)c2c1[C@H](O)[C@@H](F)CC2 [Example 105]
> 1000	> 1000			CS(=O)(=O)c1ccc([C@@H]2CCCc3cnccc32)c2c1[C@H](O)C(F)(F)C2 [Example 106]
> 1000	> 1000			CS(=O)(=O)c1ccc([C@@H]2CNCc3cc(F)cc(F)c32)c2c1[C@H](O)C(F)(F)C2 [Example 107]
> 1000	> 1000			N#Cc1cc(F)cc2c1[C@H](c1ccc(C(F)(F)F)c3c1OC(F)(F)[C@H]3O)CCC2 [Example 108]
> 1000	> 1000			O=S(=O)(c1ccc([C@]2(O)CCCc3cc(F)cc(F)c32)c2c1[C@H](O)[C@H](F)C2)C(F)(F)F [Example 109]
> 1000	> 1000			CS(=O)(=O)c1ccc(C2CCCc3cc(F)cc(F)c32)c2cccnc12 (stereo not drawn) [Example 110]
> 1000	> 1000			CS(=O)(=O)c1ccc([C@H]2NCCc3cc(F)cc(F)c32)c2c1[C@H](O)C(F)(F)C2 [Example 111]
> 1000	> 1000			O=S(=O)(c1ccc([C@@H]2CCNc3cc(F)cc(F)c32)c2c1[C@H](O)[C@H](F)C2)C(F)(F)F [Example 112]
> 1000	> 1000			CC1(O)c2c(S(C)(=O)=O)ccc([C@H]3CCCc4cc(F)cc(F)c43)c2CC1(F)F (stereo partly drawn) [Example 113]
< 100	< 100			CC1(C)CC[C@H](c2ccc(S(=O)(=O)C(F)(F)F)c3c2C[C@@H](F)[C@H]3O)c2c(C#N)cc(F)cc21 [Example 114]

IC50 ([1]; Table 1) [nM]	IC50 ([2]; Table 1, 20 hours incubation) [nM]	IC50 ([1]; Table 2) [nM]	IC50 ([2]; Table 2, 20 hours incubation) [nM]	Structure (SMILES)
< 100	< 100			N#Cc1cc(F)cc2c1[C@@H](c1ccc(S(=O)(=O)C(F)F)c3c1C[C@@H](F)[C@H]3O)CCC2 [Example 115]
< 100	< 100			Cn1nccc1-c1ccc([C@H]2CCCc3cc(F)cc(C#N)c32)c2c1[C@H](O)C(F)(F)C2 [Example 116]
100 to 1000	100 to 1000			N#Cc1cc(F)cc2c1[C@@H](c1ccc(Cl)c3c1CC(F)(F)[C@H]3O)CCC2 [Example 117]
> 1000	100 to 1000			N#Cc1cc(F)cc2c1N(c1ccc(C(F)(F)F)c(F)c1C#N)CCC2O (stereo not drawn) [Example 119]
100 to 1000	100 to 1000			CC1(O)CCN(c2ccc(C(F)(F)F)c(F)c2C#N)c2c(C#N)cc(F)cc21 (stereo not drawn) [Example 120]
		< 100	< 100	N#Cc1cc(F)cc2c1N(c1ccc(C(F)(F)F)c(F)c1C#N)CC[C@@H]2F [Example 121, (4S)-1-[2-Cyano-3-fluoro-4-(trifluoromethyl)phenyl]-4,6-difluoro-3,4-dihydro-2H-quinoline-8-carbonitrile]
		< 100	< 100	CS(=O)(=O)c1ccc(N2CCC(F)c3cc(F)cc(C#N)c32)c(C#N)c1Cl (stereo not drawn) [Example 122, 1-(3-chloro-2-cyano-4-methylsulfonylphenyl)-4,6-difluoro-3,4-dihydro-2H-quinoline-8-carbonitrile]
		< 100	< 100	N#Cc1cc(F)cc2c1N(c1ccc(C(F)(F)F)c(Cl)c1C#N)CCC2F (stereo not drawn) [Example 123, 1-[3-Chloro-2-cyano-4-(trifluoromethyl)phenyl]-4,6-difluoro-3,4-dihydro-2H-quinoline-8-carbonitrile]
		< 100	< 100	N#Cc1cc(F)cc2c1N(c1ccc(C(F)(F)F)c(F)c1C#N)CCC2C#N (stereo not drawn) [Example 124, 1-[2-cyano-3-fluoro-4-(trifluoromethyl)phenyl]-6-fluoro-3,4-dihydro-2H-quinoline-4,8-dicarbonitrile]
		< 100	< 100	N#Cc1cc(F)cc2c1N(c1ccc(C(F)(F)F)c(F)c1C#N)CCC2(F)F [Example 125, 1-[2-cyano-3-fluoro-4-(trifluoromethyl)phenyl]-4,4,6-trifluoro-2,3-dihydroquinoline-8-carbonitrile]
		< 100	< 100	Cc1c(N2CCC(F)(F)c3cc(F)cc(C#N)c32)cnc(C(C)(F)F)c1F [Example 126, 1-[6-(1,1-Difluoroethyl)-5-fluoro-4-methylpyridin-3-yl]-4,4,6-trifluoro-2,3-dihydroquinoline-8-carbonitrile]
		< 100	< 100	N#Cc1cc(F)cc2c1N(c1cnc(C(F)(F)F)c(F)c1Cl)CCC2(F)F [Example 127, 1-[4-Chloro-5-fluoro-6-(trifluoromethyl)pyridin-3-yl]-4,4,6-trifluoro-2,3-dihydroquinoline-8-carbonitrile]
		< 100	< 100	Cc1c(N2CCC(F)(F)c3cc(F)cc(C#N)c32)cnc(C(F)(F)F)c1C#N [Example 128, 1-[5-cyano-4-methyl-6-(trifluoromethyl)pyridin-3-yl]-4,4,6-trifluoro-2,3-dihydroquinoline-8-carbonitrile]
		< 100	< 100	Cc1c(N2CCC(F)(F)c3cc(F)cc(C#N)c32)cnc(C(F)(F)F)c1F [Example 129, 4,4,6-Trifluoro-1-[5-fluoro-4-methyl-6-(trifluoromethyl)pyridin-3-yl]-2,3-dihydroquinoline-8-carbonitrile]
		< 100	< 100	N#Cc1cc(F)cc2c1N(c1ccc(C(F)(F)F)c(F)c1C#N)C[C@H](F)[C@@H]2F [Example 130, (3S,4R)-1-[2-Cyano-3-fluoro-4-(trifluoromethyl)phenyl]-3,4,6-trifluoro-1,2,3,4-tetrahydroquinoline-8-carbonitrile]
		< 100	< 100	COC1CCN(c2ccc(C(F)(F)F)c(F)c2C#N)c2c(C#N)cc(F)cc21 (stereo not drawn) [Example 131, 1-[2-Cyano-3-fluoro-4-(trifluoromethyl)phenyl]-6-fluoro-4-methoxy-3,4-dihydro-2H-quinoline-8-carbonitrile]
		< 100	< 100	COC1CCN(c2ccc(C(C)(F)F)c(F)c2C#N)c2c(C#N)cc(F)cc21 (stereo not drawn) [Example 132, 1-[2-Cyano-4-(1,1-difluoroethyl)-3-fluorophenyl]-6-fluoro-4-methoxy-3,4-dihydro-2H-quinoline-8-carbonitrile]
		< 100	< 100	CC(F)(F)c1ccc(N2CCC(F)(F)c3cc(F)cc(C#N)c32)c(C#N)c1F [Example 133, 1-[2-cyano-4-(1,1-difluoroethyl)-3-fluorophenyl]-4,4,6-trifluoro-1,2,3,4-tetrahydro-8-quinolinecarbonitrile]
		< 100	< 100	CS(=O)(=O)c1ccc([C@H]2CC[C@H](F)c3cc(F)cc(C#N)c32)c2c1[C@H](O)[C@H](F)C2 [Example 134, (5S,8R)-3,5-Difluoro-8-[(1S,2R)-2-fluoro-1-hydroxy-7-methylsulfonyl-2,3-dihydro-1H-inden-4-yl]-5,6,7,8-tetrahydronaphthalene-1-carbonitrile]
		< 100	< 100	CS(=O)(=O)c1ccc([C@H]2CCC(F)(F)c3cc(F)cc(C#N)c32)c2c1[C@H](O)[C@H](F)C2 [Example 135, (8R)-3,5,5-Trifluoro-8-[(1S,2R)-2-fluoro-1-hydroxy-7-methylsulfonyl-2,3-dihydro-1H-inden-4-yl]-7,8-dihydro-6H-naphthalene-1-carbonitrile]

Structure (SMILES)	IC50 ([1]; Table 1) [nM]	IC50 ([2]; Table 1, 20 hours incubation) [nM]	IC50 ([1]; Table 2) [nM]	IC50 ([2]; Table 2, 20 hours incubation) [nM]
N#Cc1cc(F)cc2c1N(c1ccc(C(F)(F)F)c(F)c1C#N)CCC2 [Example 118]	100 to 1000	100 to 1000		
